Test results: BindingDB's records for doi:10.1110/ps.03533004 (University of Copenhagen, 2004)

Assays:
[1] = molecular target: T1, Dihydroorotate dehydrogenase (quinone), mitochondrial [30-395] (Rattus norvegicus, UniProt Q63707); test: Enzyme Inhibition Assay; conditions: pH 8; 30 °C
T1 construct: 30-395

[2] = molecular target: Dihydroorotate dehydrogenase (quinone), mitochondrial (Rattus norvegicus, UniProt Q63707); test: Enzyme Inhibition Assay; conditions: pH 8; 30 °C
Chain of Dihydroorotate dehydrogenase (quinone), mitochondrial (Q63707 whole entry): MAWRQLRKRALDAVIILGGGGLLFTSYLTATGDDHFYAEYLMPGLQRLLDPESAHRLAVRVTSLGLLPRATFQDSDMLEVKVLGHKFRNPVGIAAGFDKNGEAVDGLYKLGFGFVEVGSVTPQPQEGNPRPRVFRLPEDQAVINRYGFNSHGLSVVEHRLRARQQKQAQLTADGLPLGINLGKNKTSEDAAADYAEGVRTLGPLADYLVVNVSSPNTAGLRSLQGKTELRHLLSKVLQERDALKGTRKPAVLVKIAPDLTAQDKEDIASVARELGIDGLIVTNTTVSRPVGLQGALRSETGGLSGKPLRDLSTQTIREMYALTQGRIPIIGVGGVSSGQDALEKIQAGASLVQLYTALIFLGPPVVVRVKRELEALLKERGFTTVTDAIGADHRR

T1 sequence (Q63707 30-395): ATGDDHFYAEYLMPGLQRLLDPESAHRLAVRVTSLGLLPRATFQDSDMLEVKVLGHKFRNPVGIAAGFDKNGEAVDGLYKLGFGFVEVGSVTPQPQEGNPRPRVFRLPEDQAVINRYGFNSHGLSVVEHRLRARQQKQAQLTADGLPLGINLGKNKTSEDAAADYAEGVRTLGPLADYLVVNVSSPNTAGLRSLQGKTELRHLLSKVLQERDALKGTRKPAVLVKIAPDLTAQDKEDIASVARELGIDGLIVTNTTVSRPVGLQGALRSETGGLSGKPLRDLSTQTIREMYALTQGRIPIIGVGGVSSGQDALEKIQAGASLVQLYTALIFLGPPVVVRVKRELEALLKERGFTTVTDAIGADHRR

SMILES: O=C1C(=O)C(C2CCC(c3ccc(Cl)cc3)CC2)C(=O)c2ccccc21 (configuration not stated) [Mepron]
- IC50 [1]: 904 nM
- IC50 [2]: 698 nM
